From patent US10214546B2, “Btk inhibitors” (MERCK SHARP & DOHME CORP., priority 2014, dated 2019)
Where two headings read alike, the source gives them in different places.

How the values were obtained:
[1] = target: BTK enzyme (recombinant full-length BTK, hBTK) (Homo sapiens (Human), UniProt Q06187); test: BTK enzymatic activity LANCE TR-FRET assay; type: biochemical; conditions: 50 pM hBTK, 25 μM ATP, 2 μM biotin-A5-peptide; compound range 1 μM to 0.017 nM; read-out: BTK binding IC50
[2] = system: adenosine uptake into HeLa cells; test: [3H]Adenosine uptake assay in HeLa cells; type: cell-based; conditions: compound range 10 μM to 0.032 nM
Procedure, shortened: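 HeLa cells in HBSS + 5% FBS were preincubated 30 min at ambient temperature with compound (ten-point 1:3 series, 10 µM–[…] final), then given [3H]adenosine (added as a 500 nM solution) for 60 min. Cell-associated label was read by scintillating-plate proximity counting; IC50 from 4-parameter fit of cps versus log concentration.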

[3] = Homo sapiens, HeLa, [3H]adenosine accumulation in HeLa cells, read-out: ADU inhibition IC50
[4] = [3H]adenosine accumulation in HeLa cells, read-out: ADU inhibition IC50

Chain of BTK enzyme (recombinant full-length BTK, hBTK) (Q06187 whole entry): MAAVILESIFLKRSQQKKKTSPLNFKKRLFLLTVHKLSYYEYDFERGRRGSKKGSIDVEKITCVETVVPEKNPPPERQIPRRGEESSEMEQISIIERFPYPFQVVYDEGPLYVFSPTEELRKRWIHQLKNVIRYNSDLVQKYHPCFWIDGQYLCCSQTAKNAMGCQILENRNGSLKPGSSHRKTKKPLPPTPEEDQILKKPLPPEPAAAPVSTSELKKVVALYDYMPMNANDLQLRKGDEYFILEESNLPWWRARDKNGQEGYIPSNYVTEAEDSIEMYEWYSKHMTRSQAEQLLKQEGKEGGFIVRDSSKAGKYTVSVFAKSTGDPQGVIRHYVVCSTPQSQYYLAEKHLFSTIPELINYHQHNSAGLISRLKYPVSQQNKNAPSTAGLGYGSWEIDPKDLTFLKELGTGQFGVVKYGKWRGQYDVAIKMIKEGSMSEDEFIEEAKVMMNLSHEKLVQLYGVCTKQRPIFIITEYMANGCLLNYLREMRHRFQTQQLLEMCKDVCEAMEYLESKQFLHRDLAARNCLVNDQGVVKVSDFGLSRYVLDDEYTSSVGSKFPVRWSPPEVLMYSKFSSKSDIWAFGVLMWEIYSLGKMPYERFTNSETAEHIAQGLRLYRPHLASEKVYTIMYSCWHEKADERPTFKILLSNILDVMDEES

IC50 [1] [µM] | IC50 [2, 3] [nM] | IC50 [2, 4] [nM] | SMILES | IC50 ([2]; Homo sapiens, HeLa, read-out: ADU inhibition IC50 (nM), [3H]adenosine accumulation in HeLa cells) [nM]
0.0016 | 1680 | – | C[C@@](O)(c1cccc(C(F)(F)F)c1)c1ccc(-c2nc([C@@H]3CC[C@H]4CCC(=O)N4C3)n3ccnc(N)c23)c(F)c1 [Example 102, (6R,8aS)-6-[8-amino-1-(2-fluoro-4-{(1R)-1-hydroxy-1-[3-(trifluoromethyl)phenyl]ethyl}phenyl)imidazo [1,5-a]pyrazin-3-yl]hexahydroindolizin-3(2H)-one] | –
0.0107 | 1700 | – | Cc1cc([C@](C)(O)c2cccc(C(F)(F)F)c2)ccc1-c1nc([C@@H]2CC[C@H]3CCC(=O)N3C2)n2ccnc(N)c12 [Example 104, (6R,8aS)-6-[8-amino-1-(4-{(1S)-1-hydroxy-1-[3-(trifluoromethyl)phenyl]ethyl}-2-methylphenyl)imidazo [1,5-a]pyrazin-3-yl]hexahydroindolizin-3(2H)-one] | –
0.205 | – | 1470 | CC(C)C(O)(c1ccc(-c2nc([C@@H]3CC[C@H]4CCC(=O)N4C3)n3ccnc(N)c23)cc1)c1cccc(C(F)(F)F)c1 (stereo partly drawn) [Example 79, (6R,8aS)-6-[8-amino-1-(4-{1-hydroxy-2-methyl-1-[3-(trifluoromethyl)phenyl]propyl}phenyl)imidazo [1,5-a]pyrazin-3-yl]hexahydroindolizin-3(2H)-one] | –
0.072 | – | 1710 | CCC(O)(c1ccc(-c2nc([C@@H]3CC[C@H]4CCC(=O)N4C3)n3ccnc(N)c23)cc1)c1cccc(C(F)(F)F)c1 (stereo partly drawn) [Example 61, (6R,8aS)-6-[8-amino-1-(4-{1-hydroxy-1-[3-(trifluoromethyl)phenyl]propyl}phenyl)imidazo [1,5-a]pyrazin-3-yl]hexahydroindolizin-3(2H)-one] | –
0.243 | 1220 | – | COc1ccccc1[C@](C)(O)c1ccc(-c2nc([C@@H]3CC[C@H]4CCC(=O)N4C3)n3ccnc(N)c23)cc1 [Example 50, (6R,8aS)-6-(8-amino-1-{4-[(1R)-1-hydroxy-1-(2-methoxyphenyl)ethyl]phenyl}imidazo[1,5-a]pyrazin-3-yl)hexahydroindolizin-3(2H)-one] | –
0.329 | 3520 | – | CCOc1cc([C@@](C)(O)c2cccc(C(F)(F)F)c2)cc(F)c1-c1nc([C@@H]2CC[C@H]3CCC(=O)N3C2)n2ccnc(N)c12 [Example 212, (6R,8aS)-6-[8-amino-1-(2-ethoxy-6-fluoro-4-{(1S)-1-hydroxy-1-[3-(trifluoromethyl)phenyl]ethyl}phenyl)imidazo [1,5-a]pyrazin-3-yl]hexahydroindolizin-3(2H)-one] | –
0.459 | 2140 | – | Cc1ccc(C(F)(F)F)cc1C(O)c1ccc(-c2nc([C@@H]3CC[C@H]4CCC(=O)N4C3)n3ccnc(N)c23)cc1 (stereo partly drawn) [Example 127, (6R,8aS)-6-[8-amino-1-(4-{hydroxy[2-methyl-5-(trifluoromethyl)phenyl]methyl}phenyl)imidazo [1,5-a]pyrazin-3-yl]hexahydroindolizin-3(2H)-one] | –
0.156 | 2610 | – | Nc1nccn2c([C@@H]3CC[C@H]4CCC(=O)N4C3)nc(-c3ccc([C@@](O)(c4ccccc4)C(F)(F)F)cc3)c12 [Example 26, (6R,8aS)-6-(8-amino-1-{4-[(1S)-2,2,2-trifluoro-1-hydroxy-1-phenylethyl]phenyl}imidazo[1,5-a]pyrazin-3-yl)hexahydroindolizin-3(2H)-one] | –
0.0003 | 2950 | – | CC(F)(F)c1cccc([C@](C)(O)c2ccc(-c3nc([C@@H]4CC[C@H]5CCC(=O)N5C4)n4ccnc(N)c34)cc2)c1 [Example 132, (6R,8aS)-6-[8-amino-1-(4-{(1R)-1-[3-(1,1-difluoroethyl)phenyl]-1-hydroxyethyl}phenyl)imidazo[1,5-a]pyrazin-3-yl]hexahydroindolizin-3(2H)-one] | –
0.0449 | 892 | – | CC(C)(c1cccc([C@@](C)(O)c2ccc(-c3nc([C@@H]4CC[C@H]5CCC(=O)N5C4)n4ccnc(N)c34)cc2)c1)C(F)(F)F [Example 109, (6R,8aS)-6-[8-amino-1-(4-{(1S)-1-hydroxy-1-[3-(2,2,2-trifluoro-1,1-dimethylethyl)phenyl]ethyl}phenyl)imidazo[1,5-a]pyrazin-3-yl]hexahydroindolizin-3(2H)-one] | –
0.00019 | 5120 | – | C[C@@](O)(c1ccc(-c2nc([C@@H]3CC[C@H]4CCC(=O)N4C3)n3ccnc(N)c23)cc1)c1cccc(C(F)F)c1 [Example 71, (6R,8aS)-6-[8-amino-1-(4-{(1R)-1-[3-(difluoromethyl)phenyl]-1-hydroxyethyl}phenyl)imidazo[1,5-a]pyrazin-3-yl]hexahydroindolizin-3(2H)-one] | –
0.0034 | 1240 | – | Nc1nccn2c([C@@H]3CC[C@H]4CCC(=O)N4C3)nc(-c3ccc(C(O)(c4ccccc4)C(F)(F)F)cc3)c12 (stereo partly drawn) [Example 12, (6R,8aS)-6-(8-amino-1-(4-(2,2,2-trifluoro-1-hydroxy-1-phenethyl)phenyl)imidazo[1,5-a]pyrazin-3-yl)hexahydroindolizin-3(2H)-one] | –
0.0073 | 2440 | – | CC(O)(c1ccc(-c2nc([C@@H]3CC[C@H]4CCC(=O)N4C3)n3ccnc(N)c23)cc1)c1cccc(F)c1 (stereo partly drawn) [Example 16, (6R,8aS)-6-(8-amino-1-{4-[1-(3-fluorophenyl)-1-hydroxyethyl]phenyl}imidazo[1,5-a]pyrazin-3-yl)hexahydroindolizin-3(2H)-one] | –
0.0022 | 5870 | – | CCOc1cc([C@@](C)(O)c2cccc(C(F)(F)F)c2)ccc1-c1nc([C@@H]2CC[C@H]3CCC(=O)N3C2)n2c(F)cnc(N)c12 [Example 204, (6R,8aS)-6-[8-amino-1-(2-ethoxy-4-{(1S)-1-hydroxy-1-[3-(trifluoromethyl)phenyl]ethyl}phenyl)-5-fluoroimidazo[1,5-a]pyrazin-3-yl]hexahydroindolizin-3(2H)-one] | –
0.0644 | 436 | – | CC(F)(F)c1cccc([C@@](C)(O)c2ccc(-c3nc([C@@H]4CC[C@H]5CCC(=O)N5C4)n4ccnc(N)c34)cc2)c1 [Example 131, (6R,8aS)-6-[8-amino-1-(4-{(1S)-1-[3-(1,1-difluoroethyl)phenyl]-1-hydroxyethyl}phenyl)imidazo[1,5-a]pyrazin-3-yl]hexahydroindolizin-3(2H)-one] | –
0.499 | – | 369 | CC1(C)C[C@@H]2CC[C@@H](c3nc(-c4ccc(C(C)(O)c5cccc(C(F)(F)F)c5)cc4F)c4c(N)nccn34)CN2C1=O (stereo partly drawn) [Example 196, (6R,8aS)-6-[8-amino-1-(2-fluoro-4-{1-hydroxy-1-[3-(trifluoromethyl)pheyl]ethyl}phenyl)imidazo [1,5-a)pyrazin-3-yl]-2,2-dimethylhexahydroindolizin-3(2H)-one] | –
0.0002 | – | 2990 | CC(O)(c1ccc(-c2nc([C@@H]3CC[C@H]4CCC(=O)N4C3)n3ccnc(N)c23)cc1)c1cccc(OC(F)F)c1 (stereo partly drawn) [Example 148, (6R,8aS)-6-[8-amino-1-(4-{1-[3-(difluoromethoxy)phenyl]-1-hydroxyethyl}phenyl)imidazo[1,5-a]pyrazin-3-yl]hexahydroindolizin-3(2H)-one] | –
0.46 | 5550 | – | C[C@](O)(c1ccc(-c2nc([C@@H]3CC[C@H]4CCC(=O)N4C3)n3ccnc(N)c23)cc1)c1ccccc1F [Example 68, (6R,8aS)-6-(8-amino-1-{4-[(1S)-1-(2-fluorophenyl)-1-hydroxyethyl]phenyl}imidazo[1,5-a]pyrazin-3-yl)hexahydroindolizin-3(2H)-one] | –
0.00017 | 2850 | – | C[C@@](O)(c1ccc(-c2nc([C@@H]3CC[C@H]4CCC(=O)N4C3)n3ccnc(N)c23)cc1)c1cccc(CC(F)(F)F)c1 [Example 78, (6R,8aS)-6-[8-amino-1-(4-{(1R)-1-hydroxy-1-[3-(2,2,2-trifluoroethyl)phenyl]ethyl}phenyl)imidazo[1,5-a]pyrazin-3-yl]hexahydroindolizin-3(2H)-one] | –
1 | 2100 | – | CC(C)C(O)(c1ccc(-c2nc([C@@H]3CC[C@H]4CCC(=O)N4C3)n3ccnc(N)c23)cc1)c1cccc(C(F)(F)F)c1 (stereo partly drawn) [Example 76, (6R,8aS)-6-[8-amino-1-(4-{1-hydroxy-2-methyl-1-[3-(trifluoromethyl)phenyl]propyl}phenyl)imidazo [1,5-a]pyrazin-3-yl]hexahydroindolizin-3(2H)-one] | –
0.888 | – | 701 | CC(O)(c1ccc(-c2nc([C@@H]3CC[C@H]4CCC(=O)N4C3)n3ccnc(N)c23)cc1)C1CC2CCC1CC2 (stereo partly drawn) [Example 149, (6R,8aS)-6-{8-amino-1-[4-(1-bicyclo[2.2.2]oct-2-yl-1-hydroxyethyl)phenyl]imidazo[1,5-a]pyrazin-3-yl}hexahydroindolizin-3(2H)-one] | –
0.0014 | – | 2660 | C[C@@](O)(c1ccc(-c2nc([C@@H]3CC[C@H]4C(C(F)(F)F)CC(=O)N4C3)n3ccnc(N)c23)cc1)c1cccc(C(F)F)c1 (stereo partly drawn) [Example 184, (1R,6R,8aS)-6-[8-amino-1-(4-{(1R)-1-[3-(difluoromethyl)phenyl]-1-hydroxyethyl}phenyl)imidazo[1,5-a]pyrazin-3-yl]-1-(trifluoromethyl) hexahydroindolizin-3(2H)-one] | –

SMILES | IC50 [1] [µM] | IC50 [2, 3] [nM] | IC50 [2, 4] [nM] | IC50 ([2]; Homo sapiens, HeLa, read-out: ADU inhibition IC50 (nM), [3H]adenosine accumulation in HeLa cells) [nM]
NC(=O)C(O)(c1ccc(-c2nc([C@@H]3CC[C@H]4CCC(=O)N4C3)n3ccnc(N)c23)cc1)c1cccc(C(F)(F)F)c1 (stereo partly drawn) [Example 96, 2-(4-{8-amino-3-[(6R,8aS)-3-oxooctahydroindolizin-6-yl]imidazo[1,5-a]pyrazin-1-yl}phenyl)-2-hydroxy-2-[3-(trifluoromethyl)phenyl] acetamide] | 0.576 | – | – | 7140
